Results published in US20130012473A1, “COMBINED USE OF PHOSPHOLIPID AND SULFATE GROUPS-CARRYING POLYSACCHARIDES FOR INHIBITING METASTATIC SPREAD” (KTB TUMORFORSCHUNGSGESELLSCHAFT MBH, priority 2010, published 2013).

How the values were obtained:
P-selectin ligands = assay: Flow cytometry, binding of soluble P-selectin Fc chimera; type: cell-based, mouse; details: 450 μM LysoPC treated cells vs control cells
Protocol: (§1) FIG. 3: Impact of exogenous LysoPC on the surface expression of VLA-4 or VCAM-1- and P-selectin-ligands. (A) Surface expression of VLA-4 on B16.F10 cells treated with 450 μM LysoPC for 13 days was controlled by flow cytometric analysis. […] FACS histograms (A-C) show one representative of three independent experiments. In all experiments cells only incubated with the respective FITC-conjugated detection antibody served as control.

B16.F10 cells [1] = assay: SACED cell migration assay on fibronectin; type: cell-based, mouse; details: 450 μM LysoPC, fibronectin layers
Protocol: Quantification of cell motility: Cell migration of B16.F10 cells cultivated on fibronectin (Sigma-Aldrich Chemie) covered dishes was determined with or without LysoPC. […] (Nikon, Dusseldorf, Germany) and an incubation chamber for constant temperature, applying NIS Elements AR 2.30 software and a camera (COOL-1300I; Vosskuhler GmbH, Germany)
Lamella dynamics and cell migration velocity were analyzed by the computer-assisted stroboscopic analysis of cell dynamics (SACED). At least 15 individual cells, incubated with or without LysoPC, were monitored over a period of 10 min by capturing digital images every 2 s. Subsequently, eight areas of interest were marked on each image by lines that crossed the cell lamella. The resulting 1 pixel wide areas were cut and lined up in time space plots that allowed the quantification of relevant motility data (Hinz, B. et al., Exp. Cell. Res. 251:234-243 (1999)).

VCAM-1 Fc chimera = assay: Flow cytometry, binding of soluble VCAM-1 Fc chimera; type: cell-based, mouse; details: repeatedly incubated with 450 μM LysoPC for 13 days
Protocol: as §1

B16.F10 cells [2] = assay: Fatty acid composition of cell lysates by GC analysis; type: cell-based, mouse
Protocol: Determination of fatty acid composition in cells and culture medium: Lipid extraction was performed according to the modified method of Bligh and Dyer (Bligh, E. G. and Dyer, W. J., Can. J. Biochem. Physiol. 37:911-917 (1959). For derivatization, the dried lipid extracts were subjected to methanol and TMSH and heated up to 100° C. for 10 min (Techne Dri Block DB-3D Techne, Stone, UK). Gas chromatography analysis was performed by an HP 5890 Series II Plus equipped with autosampler GC/SFC injector and flame ionisation detector (FID) with helium as carrier gas at 1 ml/min. Oven temperature program started with 150° C. for 3 min, up to 220° C. with a rate of 5° C./min, 220° C. for 3.5 min, split injection (split flow 100 ml/min, split ratio 1:100), 5 μl of injection volume, injector temperature 260° C. and FID at 280° C. on an Agilent DB-23 column (30 m, 0.25 mm ID, 0.25 μm). Integration of peak areas was performed with the HP software HP GC ChemStation (Rev.A.06.03[509]) running the GC system. Identification of peaks was accomplished by comparison to a fatty acid standard mixture.
Example 3: Cell membrane alterations induced by LysoPC treatment. In order to analyze membrane alterations caused by exogenous LysoPC the kinetics of changed fatty acid profiles of B16.F10 cells were evaluated by GC analysis. […] Between 48 h and 72 h, a plateau was apparently reached (C17:0: ˜55%). […]

[3] = system: P-selectin mediated interaction of B16.F10 cells with activated platelets; assay: Binding of calcein-labeled TRAP-14 activated platelets to B16.F10 cells; type: cell-based, mouse; details: cells treated with 450 μM LysoPC for 48 h
Protocol: Platelet isolation: Platelets from blood of healthy volunteers were separated, routinely tested for viability, and activated by TRAP-14 (Bachem GmbH, Weil am Rhein, Germany) as recently described (Fritzsche, J. et al., Thromb. Haemost. 100:1166-1175 (2008)). Isolated platelets were stored at 37° C. in a water bath.
B) Binding of calcein-labeled TRAP-14 activated platelets to B16.F10 cells treated with 450 μM LysoPC for 48 h was analyzed by fluorescence microscopy. […] Data represent means±SD from three independent experiments. P, resting platelets; aP, activated platelets; LysoPC, LysoPC treated B16.F10 cells; Ab, Ig-matched control antibody.

VLA-4 = assay: Flow cytometry, VLA-4 surface expression (anti-mouse CD49d mAb); type: cell-based; details: repeatedly incubated with 450 μM LysoPC for 13 days
Protocol: as §1

[4] = system: B16.F10 ELN melanoma cells; assay: In vivo bioluminescence imaging of metastatic spread; design: species or system mouse; details: measured once weekly
Protocol: Metastatic spread was also measured once weekly by in vivo bioluminescence as described previously (Jantscheff, P. et al., Prostate 69:1151-1163 (2009)). Overlays of in vivo images and mouse photographs allowed to localize the metastatic lesions in lung and at the injection sites (D: black arrows) even in late images (D: day 14).

## CCCCCCCCCCCCCCCCC(=O)OC[C@@H](O)COP(=O)([O-])OCC[N+](C)(C)C [LysoPC]
P-selectin ligands
  expression of P-selectin ligands (P-selectin-Fc chimera binding): remained unchanged
B16.F10 cells [1]
  lamellipodia dynamics (frequencies of protrusion and retraction): attenuated dynamics (p<0.05) of lamellipodia protrusion and retraction
B16.F10 cells [1]; p<0.05
  lamellipodia retraction velocity: slower lamellipodia retraction velocity
VCAM-1 Fc chimera
  functionality of VLA-4 to interact with soluble VCAM-1-Fc chimera: only slightly impaired
B16.F10 cells [2]; 48 h after incubation in LysoPC-free DMEM medium
  reduction of fatty acid ratio after replacing LysoPC medium: 10-15%
B16.F10 cells [2]; repeated feeding (up to six times) every 48 h
  membrane composition on repeated feeding: did not further change the membrane composition
[3]
  interaction of B16.F10 cells with activated platelets: significantly (p<0.001) reduced P-selectin mediated interaction with activated platelets to the level of resting cells
VLA-4
  VLA-4 receptor expression: did not influence VLA-4 receptor expression
[4]
  quantification of metastatic spread by in vivo bioluminescence, differences LysoPC-treated vs untreated: could not confirm
